Assay [1] concerns the target T1, Nuclear factor erythroid 2-related factor 2 (Homo sapiens) (UniProt Q16236).
T1 sequence (whole entry): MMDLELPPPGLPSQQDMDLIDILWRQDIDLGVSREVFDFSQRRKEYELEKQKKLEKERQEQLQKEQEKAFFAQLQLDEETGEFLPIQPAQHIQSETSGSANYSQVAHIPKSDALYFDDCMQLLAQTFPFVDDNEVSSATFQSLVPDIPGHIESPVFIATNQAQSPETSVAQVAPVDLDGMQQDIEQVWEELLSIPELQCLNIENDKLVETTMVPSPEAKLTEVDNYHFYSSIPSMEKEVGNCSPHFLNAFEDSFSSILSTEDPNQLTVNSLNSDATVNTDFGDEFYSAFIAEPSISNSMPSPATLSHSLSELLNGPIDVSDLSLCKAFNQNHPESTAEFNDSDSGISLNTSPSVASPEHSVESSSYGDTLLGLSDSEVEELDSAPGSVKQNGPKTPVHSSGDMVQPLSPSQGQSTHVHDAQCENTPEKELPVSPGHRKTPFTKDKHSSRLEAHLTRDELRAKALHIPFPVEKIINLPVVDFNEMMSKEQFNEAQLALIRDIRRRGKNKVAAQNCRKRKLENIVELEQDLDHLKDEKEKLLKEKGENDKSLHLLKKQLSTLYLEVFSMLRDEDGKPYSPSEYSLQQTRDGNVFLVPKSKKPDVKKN
Kind of assay: Activation of Nrf2 in human BEAS2B cells assessed as increase in HO1 gene expression at 10 uM incubated for 6 hrs by qPCR method. Format: cell-based. For orientation: Real-time PCR tracks product formation cycle by cycle.

The target of assay [2] is T1, Nuclear factor erythroid 2-related factor 2 (Homo sapiens). The assay can be described thus: Activation of Nrf2 in human BEAS2B cells assessed as increase in HO1 gene expression at 5 uM incubated for 6 hrs by qPCR method. The class given is cell-based.
Assay [3] has as its system Mus musculus. The assay can be described thus: Increase in HO-1 protein expression in mouse lung at 400 mg/kg, po measured 6 hrs post dose by ELISA method. Format: functional, organism-based. In general terms: In an ELISA, binding on a coated surface is turned into a signal by an enzyme label.
The subject of assay [4] is Mus musculus. Kind of assay: Increase in HO-1 gene expression in mouse lung at 200 mg/kg, po measured 6 hrs post dose by qPCR method. Format: functional, organism-based.
For assay [5], the system named is Mus musculus. Kind of assay: Increase in HO-1 gene expression in mouse lung at 400 mg/kg, po measured 6 hrs post dose by qPCR method. The class given is functional, organism-based.
In assay [6] the test system is Mus musculus. The assay can be described thus: Increase in HO-1 protein expression in mouse lung at 200 mg/kg, po measured 6 hrs post dose by ELISA method. Format: functional, organism-based.

Active and inactive are the calls of the source. The rule behind the calls is not given here.

Consider `COC(=O)[C@]12CCC(C)(C)C[C@H]1[C@H]1C(=O)C=C3[C@@]4(C)C=C(C#N)C(=O)C(C)(C)[C@@H]4CC[C@@]3(C)[C@]1(C)CC2`, for which the outcome in assay [1] was Active.
Turning to `COc1cnccc1C(=O)/C=C/c1ccccc1C(F)(F)F`, the result in assay [2] was Active.
For the molecule `COc1ccccc1C(=O)/C=C/c1ccccc1C(F)(F)F`, the result (in the assay with Mus musculus [3]; in assay [2]; in the assay with Mus musculus [4]; in the assay with Mus musculus [5]; in the assay with Mus musculus [6]) was Active.
On to `COc1ccncc1C(=O)/C=C/c1ccccc1C(F)(F)F`, for which the outcome in assay [2] was Active.
The same measure, in the same setting: next, `COc1ccccc1C(=O)/C=C/c1ccncc1C(F)(F)F`: “Active”; `COc1ccccc1C(=O)/C=C/c1cnccc1C(F)(F)F`: “Active”.
For the molecule `COc1ccccc1C(=O)/C=C/c1ncccc1C(F)(F)F`, the outcome (in the assay on Mus musculus [3]; in assay [2]; with Mus musculus [4]; with Mus musculus [5]) was Active.

Source of the values: ChEMBL document CHEMBL3603814, “Heterocyclic chalcone activators of nuclear factor (erythroid-derived 2)-like 2 (Nrf2) with improved in vivo efficacy” (Bioorg Med Chem, 2015).
